Reference: ChEMBL document CHEMBL3885881, “DrugMatrix”

Species: Rattus norvegicus
Test: DrugMatrix - Regimen: Daily Repeat
Format: toxicity, organism-based, Sprague-Dawley
Design: regimen Daily Repeat, gender Male, age 6-8 weeks
Settings: in vivo, po, route oral GAVAGE, vehicle .5 % CMC; for BASOPHIL / EOSINOPHIL / ERYTHROCYTE COUNT / HEMATOCRIT / HEMOGLOBIN / LEUKOCYTE COUNT / LYMPHOCYTE / MEAN CORPUSCULAR HEMOGLOBIN / MEAN CORPUSCULAR HEMOGLOBIN CONCENTRATION / MEAN CORPUSCULAR VOLUME / MONOCYTE / NEUTROPHIL / PLATELET COUNT: tissue Blood; for ALANINE AMINOTRANSFERASE / ALBUMIN / ALKALINE PHOSPHATASE / ASPARTATE AMINOTRANSFERASE / BLOOD UREA NITROGEN / CHLORIDE / CHOLESTEROL / CREATINE PHOSPHOKINASE / CREATININE / GLUCOSE / PHOSPHORUS / SODIUM / TOTAL PROTEIN: tissue Plasma
[1] = 0 mg/kg, 72 h, dose level Control, time 3 day
[2] = 0 mg/kg, 120 h, dose level Control, time 5 day
[3] = 10 mg/kg, 72 h, dose level Low, time 3 day
[4] = 10 mg/kg, 120 h, dose level Low, time 5 day
[5] = 2000 mg/kg, 72 h, dose level High, time 3 day
[6] = 2000 mg/kg, 120 h, dose level High, time 5 day

`CCn1cc(C(=O)O)c(=O)c2cc(F)c(N3CCNC(C)C3)c(F)c21` (stereo unspecified) [LOMEFLOXACIN] was tested, and the BASOPHIL [1] was 0%, the EOSINOPHIL [1] was 0.4% and the “ERYTHROCYTE COUNT” value [1] was 6.43 x10E6/uL. For the same compound, the HEMATOCRIT [1] was 37.36%, the HEMOGLOBIN [1] was 13.98 G/DL and the “LEUKOCYTE COUNT” value [1] was 13 x10E3/uL. The LYMPHOCYTE [1] was 81.4%, the “MEAN CORPUSCULAR HEMOGLOBIN” value [1] was 21.9 pg and the “MEAN CORPUSCULAR HEMOGLOBIN CONCENTRATION” value [1] was 37.4 G/DL. For the same compound, the “MEAN CORPUSCULAR VOLUME” value [1] was 58.52 fL, the MONOCYTE [1] was 0.4% and the NEUTROPHIL [1] was 18%. The “PLATELET COUNT” value [1] was 1386 x10E3/uL, the “ALANINE AMINOTRANSFERASE” value [1] was 39.33 u/L and the ALBUMIN [1] was 3.57 G/DL. The “ALKALINE PHOSPHATASE” value [1] was 283.83 u/L, the “ASPARTATE AMINOTRANSFERASE” value [1] was 69.5 u/L and the “BLOOD UREA NITROGEN” value [1] was 14.83 mg/dL. For the same compound, the CHLORIDE [1] was 107.33 MEQ/L, the CHOLESTEROL [1] was 75.17 mg/dL and the “CREATINE PHOSPHOKINASE” value [1] was 107.67 u/L. The CREATININE [1] was 0.48 mg/dL, the GLUCOSE [1] was 172.5 mg/dL and the PHOSPHORUS [1] was 10.48 mg/dL. The SODIUM [1] was 152.33 MEQ/L, the “TOTAL PROTEIN” value [1] was 5.9 G/DL and the BASOPHIL [2] was 0%. The EOSINOPHIL [2] was 0.4%, the “ERYTHROCYTE COUNT” value [2] was 6.96 x10E6/uL and the HEMATOCRIT [2] was 41.12%. For the same compound, the HEMOGLOBIN [2] was 15.24 G/DL, the “LEUKOCYTE COUNT” value [2] was 11.06 x10E3/uL and the LYMPHOCYTE [2] was 88.6%. The “MEAN CORPUSCULAR HEMOGLOBIN” value [2] was 21.96 pg, the “MEAN CORPUSCULAR HEMOGLOBIN CONCENTRATION” value [2] was 37.1 G/DL and the “MEAN CORPUSCULAR VOLUME” value [2] was 59.12 fL. For the same compound, the MONOCYTE [2] was 0.2%, the NEUTROPHIL [2] was 10.8% and the “PLATELET COUNT” value [2] was 1155.8 x10E3/uL. For the same compound, the “ALANINE AMINOTRANSFERASE” value [2] was 36.33 u/L, the ALBUMIN [2] was 3.72 G/DL and the “ALKALINE PHOSPHATASE” value [2] was 340.33 u/L. The “ASPARTATE AMINOTRANSFERASE” value [2] was 68.33 u/L, the “BLOOD UREA NITROGEN” value [2] was 15 mg/dL and the CHLORIDE [2] was 108.17 MEQ/L. For the same compound, the CHOLESTEROL [2] was 74.67 mg/dL, the “CREATINE PHOSPHOKINASE” value [2] was 110.67 u/L and the CREATININE [2] was 0.47 mg/dL. For the same compound, the GLUCOSE [2] was 171.33 mg/dL, the PHOSPHORUS [2] was 10.05 mg/dL and the SODIUM [2] was 155.5 MEQ/L. For the same compound, the “TOTAL PROTEIN” value [2] was 6.33 G/DL, the BASOPHIL [3] was 0% and the EOSINOPHIL [3] was 0.33%. For the same compound, the “ERYTHROCYTE COUNT” value [3] was 6.14 x10E6/uL, the HEMATOCRIT [3] was 37.73% and the HEMOGLOBIN [3] was 14.37 G/DL. For the same compound, the “LEUKOCYTE COUNT” value [3] was 14.47 x10E3/uL, the LYMPHOCYTE [3] was 89.33% and the “MEAN CORPUSCULAR HEMOGLOBIN” value [3] was 23.47 pg. The “MEAN CORPUSCULAR HEMOGLOBIN CONCENTRATION” value [3] was 38.1 G/DL, the “MEAN CORPUSCULAR VOLUME” value [3] was 61.53 fL and the MONOCYTE [3] was 0%. The NEUTROPHIL [3] was 10.33%, the “PLATELET COUNT” value [3] was 1193.33 x10E3/uL and the “ALANINE AMINOTRANSFERASE” value [3] was 39 u/L. For the same compound, the ALBUMIN [3] was 3.37 G/DL, the “ALKALINE PHOSPHATASE” value [3] was 307 u/L and the “ASPARTATE AMINOTRANSFERASE” value [3] was 60.67 u/L. For the same compound, the “BLOOD UREA NITROGEN” value [3] was 11.33 mg/dL, the CHLORIDE [3] was 106.67 MEQ/L and the CHOLESTEROL [3] was 65.33 mg/dL. For the same compound, the “CREATINE PHOSPHOKINASE” value [3] was 106 u/L, the CREATININE [3] was 0.53 mg/dL and the GLUCOSE [3] was 175.33 mg/dL. The PHOSPHORUS [3] was 12.17 mg/dL, the SODIUM [3] was 151.67 MEQ/L and the “TOTAL PROTEIN” value [3] was 5.53 G/DL. The BASOPHIL [4] was 0%, the EOSINOPHIL [4] was 0% and the “ERYTHROCYTE COUNT” value [4] was 6.95 x10E6/uL. For the same compound, the HEMATOCRIT [4] was 41.1%, the HEMOGLOBIN [4] was 15.1 G/DL and the “LEUKOCYTE COUNT” value [4] was 16.87 x10E3/uL. For the same compound, the LYMPHOCYTE [4] was 90.67%, the “MEAN CORPUSCULAR HEMOGLOBIN” value [4] was 21.77 pg and the “MEAN CORPUSCULAR HEMOGLOBIN CONCENTRATION” value [4] was 36.73 G/DL. For the same compound, the “MEAN CORPUSCULAR VOLUME” value [4] was 59.17 fL, the MONOCYTE [4] was 0.33% and the NEUTROPHIL [4] was 9%. For the same compound, the “PLATELET COUNT” value [4] was 1212.33 x10E3/uL, the “ALANINE AMINOTRANSFERASE” value [4] was 46.33 u/L and the ALBUMIN [4] was 3.43 G/DL. The “ALKALINE PHOSPHATASE” value [4] was 276.33 u/L, the “ASPARTATE AMINOTRANSFERASE” value [4] was 68 u/L and the “BLOOD UREA NITROGEN” value [4] was 13.67 mg/dL. The CHLORIDE [4] was 105 MEQ/L, the CHOLESTEROL [4] was 70 mg/dL and the “CREATINE PHOSPHOKINASE” value [4] was 104.33 u/L. The CREATININE [4] was 0.57 mg/dL, the GLUCOSE [4] was 159.33 mg/dL and the PHOSPHORUS [4] was 10.67 mg/dL. The SODIUM [4] was 151.67 MEQ/L, the “TOTAL PROTEIN” value [4] was 5.7 G/DL and the BASOPHIL [5] was 0%. The EOSINOPHIL [5] was 0%, the “ERYTHROCYTE COUNT” value [5] was 6.7 x10E6/uL and the HEMATOCRIT [5] was 41%. The HEMOGLOBIN [5] was 15.63 G/DL, the “LEUKOCYTE COUNT” value [5] was 12.43 x10E3/uL and the LYMPHOCYTE [5] was 83%. For the same compound, the “MEAN CORPUSCULAR HEMOGLOBIN” value [5] was 23.33 pg, the “MEAN CORPUSCULAR HEMOGLOBIN CONCENTRATION” value [5] was 38.17 G/DL and the “MEAN CORPUSCULAR VOLUME” value [5] was 61.2 fL. The MONOCYTE [5] was 0.33%, the NEUTROPHIL [5] was 16.67% and the “PLATELET COUNT” value [5] was 1479.67 x10E3/uL. For the same compound, the “ALANINE AMINOTRANSFERASE” value [5] was 32 u/L, the ALBUMIN [5] was 3.53 G/DL and the “ALKALINE PHOSPHATASE” value [5] was 214.33 u/L. The “ASPARTATE AMINOTRANSFERASE” value [5] was 57.67 u/L, the “BLOOD UREA NITROGEN” value [5] was 19 mg/dL and the CHLORIDE [5] was 103.33 MEQ/L. The CHOLESTEROL [5] was 62.67 mg/dL, the “CREATINE PHOSPHOKINASE” value [5] was 126 u/L and the CREATININE [5] was 0.67 mg/dL. The GLUCOSE [5] was 129.33 mg/dL, the PHOSPHORUS [5] was 11.57 mg/dL and the SODIUM [5] was 149.33 MEQ/L. The “TOTAL PROTEIN” value [5] was 5.93 G/DL, the BASOPHIL [6] was 0% and the EOSINOPHIL [6] was 0%. For the same compound, the “ERYTHROCYTE COUNT” value [6] was 6.87 x10E6/uL, the HEMATOCRIT [6] was 40.23% and the HEMOGLOBIN [6] was 15.07 G/DL. For the same compound, the “LEUKOCYTE COUNT” value [6] was 19.9 x10E3/uL, the LYMPHOCYTE [6] was 96.33% and the “MEAN CORPUSCULAR HEMOGLOBIN” value [6] was 21.93 pg. The “MEAN CORPUSCULAR HEMOGLOBIN CONCENTRATION” value [6] was 37.47 G/DL, the “MEAN CORPUSCULAR VOLUME” value [6] was 58.57 fL and the MONOCYTE [6] was 0%. The NEUTROPHIL [6] was 3.67%, the “PLATELET COUNT” value [6] was 1396 x10E3/uL and the “ALANINE AMINOTRANSFERASE” value [6] was 40.67 u/L. The ALBUMIN [6] was 3.47 G/DL, the “ALKALINE PHOSPHATASE” value [6] was 183 u/L and the “ASPARTATE AMINOTRANSFERASE” value [6] was 56.33 u/L. For the same compound, the “BLOOD UREA NITROGEN” value [6] was 13.33 mg/dL, the CHLORIDE [6] was 106 MEQ/L and the CHOLESTEROL [6] was 63 mg/dL. The “CREATINE PHOSPHOKINASE” value [6] was 125.67 u/L, the CREATININE [6] was 0.5 mg/dL and the GLUCOSE [6] was 154.67 mg/dL. The PHOSPHORUS [6] was 10.7 mg/dL, the SODIUM [6] was 152.33 MEQ/L and the “TOTAL PROTEIN” value [6] was 5.8 G/DL.
